Measurements published in patent publication EP0266640A2 (Euro-Celtique S.A., priority 1986, dated 1988).

Tested on: asthmatic patients
Experiment: controlled triple-cross-over clinical study, body plethysmographic test of lung function (RAW, FEV1), with pulse and blood pressure
Assay type: in vivo
Protocol: In a controlled triple-cross-over study, in a body phlethysmographic test of the lung function, the effectiveness of and tolerance to the individual substances compared to the combination were investigated.
The investigation was carried out on three in-patients with chronic-obstructive airway diseases.
The associated medication with dosing aerosols was reduced to a minimum and noted in a special test report. It was ensured that no aerosol was used at least eight hours prior to each lung function investigation.
The medication sequence was randomised, with a wash-out-phase of two days after each medication.
It was ensured that all the patients had received no xanthine 24 hours before the controlled investigation (lung function test and determination of reversibility).
The lung function (RAW and FEV₁) and the pulse of the patients were measured on the first and third day always at the same time of day, as shown in Fig. 3. On the third day of the investigation, after the final measurement of lung function, the reversibility was again determined, 15 minutes after inhalation of 400 microgram Fenoterol.

SMILES	rise of FEV₁ mean-value (reversibility) (start of investigation, after inhalation of 400 microgram) [%]	FEV₁ mean-value (start of investigation, after inhalation of 400 microgram, baseline ca. 1,5 l)	reduction of airway resistance (reversibility) (start of investigation, after inhalation of 400 microgram, referred to the initial value) [%]	remaining reversibility (further improvement by inhalation of the dosing aerosol) (third day, after inhalation of 400 microgram Fenoterol, 10 mg Nifedipine alone or 300 mg Theophylline alone twice daily)
CC(Cc1ccc(O)cc1)NCC(O)c1cc(O)cc(O)c1 (stereo not shown) [Fenoterol]	45	ca. 2.2 l	50	–
Cn1c(=O)c2[nH]cnc2n(C)c1=O [Theophylline, 1,3-dimethylxanthine]	–	–	–	still left a considerable further improvement
